Measured values: patent publication US4599334A, “7-(3-aryl-1-piperazinyl)- and 7-(3-cyclohexyl-1-piperazinyl)-3-quinolonecarboxylic acid antibacterials” (Bayer Aktiengesellschaft, priority 1984, dated 1986)
Converted amounts (≈) assume the structure as drawn.

Columns and labels:
Type in all cases: cell-based
Conditions in all cases: agar dilution test/isosensitest agar, unit assumed
Staphylococcus FK 422 = assay: MIC agar dilution test, Staphylococcus FK 422
Excerpt: (§1) It has already been disclosed in J. Med. Chem. 23, 1358 (1980) that 1-ethyl-6-fluoro-1,4-dihydro-4-oxo-7-(1-piperazinyl)-3-quinolinecarboxylicacid (norfloxacin) has antibacterial properties.
(§2) MIC values (agar dilution test/isosensitest agar)

Providencia 12052 = assay: MIC agar dilution test, Providencia 12052
Excerpt: as §1, §2

Staphylococcus 133 = assay: MIC agar dilution test, Staphylococcus 133
Excerpt: as §1, §2

Serratia 16040 = assay: MIC agar dilution test, Serratia 16040
Excerpt: as §1, §2

Klebsiella 8085 = assay: MIC agar dilution test, Klebsiella 8085
Excerpt: as §1, §2

Klebsiella 6179 = assay: MIC agar dilution test, Klebsiella 6179
Excerpt: as §1, §2

E. coli Neumann = assay: MIC agar dilution test, E. coli Neumann
Excerpt: as §1, §2

Klebsiella 57 USA = assay: MIC agar dilution test, Klebsiella 57 USA
Excerpt: as §1, §2

Staphylococcus 1756 = assay: MIC agar dilution test, Staphylococcus 1756
Excerpt: as §1, §2

Compound `O=C(O)c1cn(C2CC2)c2cc(N3CCNC(c4ccccc4)C3)c(F)cc2c1=O` (stereo not drawn) [Example 1, 1-cyclopropyl-6-fluoro-1,4-dihydro-4-oxo-7-(3-phenyl-1-piperazinyl)-3-quinolinecarboxylic acid] has an MIC values (Staphylococcus FK 422) of 0.015 µg/mL (≈ 0.0368 µM), an MIC values (Providencia 12052) of 4 µg/mL (≈ 9.82 µM) and an MIC values (Staphylococcus 133) of 0.015 µg/mL (≈ 0.0368 µM). It also gave an MIC values (Serratia 16040) of 8 µg/mL (≈ 19.6 µM), an MIC values (Klebsiella 8085) of 0.015 µg/mL (≈ 0.0368 µM) and an MIC values (Klebsiella 6179) of 0.015 µg/mL (≈ 0.0368 µM). It also gave an MIC values (E. coli Neumann) of 0.015 µg/mL (≈ 0.0368 µM), an MIC values (Klebsiella 57 USA) of 0.06 µg/mL (≈ 0.147 µM) and an MIC values (Staphylococcus 1756) of 0.015 µg/mL (≈ 0.0368 µM).
`O=C(O)c1cn(C2CC2)c2cc(N3CCNC(c4ccc(N5CCCCC5)cc4)C3)c(F)cc2c1=O` (stereo not drawn) [Example 8] showed an MIC values (Staphylococcus FK 422) of 0.015 µg/mL (≈ 0.0306 µM), an MIC values (Staphylococcus 133) of 0.03 µg/mL (≈ 0.0612 µM) and an MIC values (Staphylococcus 1756) of 0.015 µg/mL (≈ 0.0306 µM).
`O=C(O)c1cn(C2CC2)c2cc(N3CCNC(c4cccc([N+](=O)[O-])c4)C3)c(F)cc2c1=O` (stereo not drawn) [Example 11] gave an MIC values (Staphylococcus FK 422) of 0.125 µg/mL (≈ 0.276 µM), an MIC values (Staphylococcus 133) of 0.06 µg/mL (≈ 0.133 µM) and an MIC values (Staphylococcus 1756) of 0.06 µg/mL (≈ 0.133 µM).
Work on `O=C(O)c1cn(C2CC2)c2cc(N3CCNC(c4ccc(F)cc4)C3)c(F)cc2c1=O` (stereo not drawn) [Example 2] yielded an MIC values (Staphylococcus FK 422) of 0.03 µg/mL (≈ 0.0705 µM), an MIC values (Providencia 12052) of 8 µg/mL (≈ 18.8 µM) and an MIC values (Staphylococcus 133) of 0.06 µg/mL (≈ 0.141 µM). For the same compound, the MIC values (Serratia 16040) was 16 µg/mL (≈ 37.6 µM), the MIC values (Klebsiella 8085) was 0.015 µg/mL (≈ 0.0353 µM) and the MIC values (Klebsiella 6179) was 0.06 µg/mL (≈ 0.141 µM). The MIC values (E. coli Neumann) was 0.015 µg/mL (≈ 0.0353 µM), the MIC values (Klebsiella 57 USA) was 0.25 µg/mL (≈ 0.588 µM) and the MIC values (Staphylococcus 1756) was 0.03 µg/mL (≈ 0.0705 µM).
`O=C(O)c1cn(C2CC2)c2c(F)c(N3CCNC(c4ccccc4)C3)c(F)cc2c1=O` (stereo not drawn) [Example 16, 1-cyclopropyl-6,8-difluoro-1,4-dihydro-4-oxo-7-(3-phenyl-1-piperazinyl)-3-quinolinecarboxylic acid] gave an MIC values (Staphylococcus FK 422) of 0.015 µg/mL (≈ 0.0353 µM), an MIC values (Providencia 12052) of 4 µg/mL (≈ 9.4 µM) and an MIC values (Staphylococcus 133) of 0.015 µg/mL (≈ 0.0353 µM). It also gave an MIC values (Serratia 16040) of 2 µg/mL (≈ 4.7 µM), an MIC values (Klebsiella 8085) of 0.015 µg/mL (≈ 0.0353 µM) and an MIC values (Klebsiella 6179) of 0.015 µg/mL (≈ 0.0353 µM). The MIC values (E. coli Neumann) was 0.015 µg/mL (≈ 0.0353 µM), the MIC values (Klebsiella 57 USA) was 0.125 µg/mL (≈ 0.294 µM) and the MIC values (Staphylococcus 1756) was 0.015 µg/mL (≈ 0.0353 µM).
Compound `O=C(O)c1cn(C2CC2)c2cc(N3CCNC(c4cccs4)C3)c(F)cc2c1=O` (stereo not drawn) [Example 12] has an MIC values (Staphylococcus FK 422) of 0.06 µg/mL (≈ 0.145 µM), an MIC values (Providencia 12052) of 8 µg/mL (≈ 19.3 µM) and an MIC values (Staphylococcus 133) of 0.03 µg/mL (≈ 0.0726 µM). The MIC values (Serratia 16040) was 16 µg/mL (≈ 38.7 µM), the MIC values (Klebsiella 8085) was 0.015 µg/mL (≈ 0.0363 µM) and the MIC values (Klebsiella 6179) was 0.125 µg/mL (≈ 0.302 µM). It also gave an MIC values (E. coli Neumann) of 0.015 µg/mL (≈ 0.0363 µM), an MIC values (Klebsiella 57 USA) of 0.5 µg/mL (≈ 1.21 µM) and an MIC values (Staphylococcus 1756) of 0.03 µg/mL (≈ 0.0726 µM).
`COc1ccc(C2CN(c3cc4c(cc3F)c(=O)c(C(=O)O)cn4C3CC3)CCN2)cc1` (stereo not drawn) [Example 5] was tested, and the MIC values (Staphylococcus FK 422) was 0.06 µg/mL (≈ 0.137 µM), the MIC values (Providencia 12052) was 8 µg/mL (≈ 18.3 µM) and the MIC values (Staphylococcus 133) was 0.06 µg/mL (≈ 0.137 µM). For the same compound, the MIC values (Serratia 16040) was 16 µg/mL (≈ 36.6 µM), the MIC values (Klebsiella 8085) was 0.03 µg/mL (≈ 0.0686 µM) and the MIC values (Klebsiella 6179) was 0.125 µg/mL (≈ 0.286 µM). The MIC values (E. coli Neumann) was 0.03 µg/mL (≈ 0.0686 µM), the MIC values (Klebsiella 57 USA) was 0.5 µg/mL (≈ 1.14 µM) and the MIC values (Staphylococcus 1756) was 0.03 µg/mL (≈ 0.0686 µM).
`O=C(O)c1cn(C2CC2)c2cc(N3CCNC(c4ccc(Cl)cc4)C3)c(F)cc2c1=O` (stereo not drawn) [Example 3] was tested, and the MIC values (Staphylococcus FK 422) was 0.06 µg/mL (≈ 0.136 µM), the MIC values (Providencia 12052) was 8 µg/mL (≈ 18.1 µM) and the MIC values (Staphylococcus 133) was 0.06 µg/mL (≈ 0.136 µM). The MIC values (Serratia 16040) was 16 µg/mL (≈ 36.2 µM), the MIC values (Klebsiella 8085) was 0.03 µg/mL (≈ 0.0679 µM) and the MIC values (Klebsiella 6179) was 0.125 µg/mL (≈ 0.283 µM). For the same compound, the MIC values (E. coli Neumann) was 0.03 µg/mL (≈ 0.0679 µM), the MIC values (Klebsiella 57 USA) was 0.5 µg/mL (≈ 1.13 µM) and the MIC values (Staphylococcus 1756) was 0.06 µg/mL (≈ 0.136 µM).
In the case of `Br.O=C(O)c1cn(C2CC2)c2cc(N3CCNC(c4ccc(O)cc4)C3)c(F)cc2c1=O` (stereo not drawn) [Example 14, 1-cyclopropyl-6-fluoro-1,4-dihydro-7-[3-(4-hydroxyphenyl)-1-piperazinyl]-4-oxo-3-quinolinecarboxylic acid hydrobromide], the MIC values (Staphylococcus FK 422) is reported as 0.125 µg/mL, the MIC values (Providencia 12052) is reported as 32 µg/mL and the MIC values (Staphylococcus 133) is reported as 0.125 µg/mL. For the same compound, the MIC values (Serratia 16040) was 8 µg/mL, the MIC values (Klebsiella 8085) was 0.03 µg/mL and the MIC values (Klebsiella 6179) was 0.25 µg/mL. It also gave an MIC values (E. coli Neumann) of 0.015 µg/mL, an MIC values (Klebsiella 57 USA) of 0.125 µg/mL and an MIC values (Staphylococcus 1756) of 0.5 µg/mL.
`CCn1cc(C(=O)O)c(=O)c2cc(F)c(N3CCNCC3)cc21` [Norfloxacin, 1-ethyl-6-fluoro-1,4-dihydro-4-oxo-7-(1-piperazinyl)-3-quinolinecarboxylicacid, reference compound] was tested, and the MIC values (Staphylococcus FK 422) was 2 µg/mL (≈ 6.26 µM), the MIC values (Providencia 12052) was 128 µg/mL (≈ 401 µM) and the MIC values (Staphylococcus 133) was 1 µg/mL (≈ 3.13 µM). For the same compound, the MIC values (Serratia 16040) was 32 µg/mL (≈ 100 µM), the MIC values (Klebsiella 8085) was 0.25 µg/mL (≈ 0.783 µM) and the MIC values (Klebsiella 6179) was 1 µg/mL (≈ 3.13 µM). It also gave an MIC values (E. coli Neumann) of 0.125 µg/mL (≈ 0.391 µM), an MIC values (Klebsiella 57 USA) of 1 µg/mL (≈ 3.13 µM) and an MIC values (Staphylococcus 1756) of 1 µg/mL (≈ 3.13 µM).
